Measurements as given in ChEMBL document CHEMBL4392882, “Glycosidic Acids with Unusual Aglycone Units from Convolvulus arvensis” (J Nat Prod, 2019).
Calls of active or inactive are those of the source.

Key:
Assay type in all cases: functional, cell-based
HeLa = assay: Cytotoxicity in human HeLa cells assessed as reduction in cell viability up to 50 uM by MTT assay
MCF7 [1] = assay: Cytotoxicity in human MCF7 cells assessed as reduction in cell viability up to 50 uM by MTT assay
MCF7 [2] = assay: Inhibition of cell migration of human MCF7 cells up to 50 uM by wound healing assay
A549 = assay: Cytotoxicity in human A549 cells assessed as reduction in cell viability up to 50 uM by MTT assay
Bel-7402 = assay: Cytotoxicity in human Bel7402 cells assessed as reduction in cell viability up to 50 uM by MTT assay

CCCCC[C@@H](CCCCCCCCCC(=O)O)O[C@@H]1O[C@H](C)[C@H](O)[C@H](O)[C@H]1O[C@@H]1O[C@H](CO)[C@@H](O)[C@H](O[C@@H]2O[C@H](CO[C@@H]3O[C@H](CO)[C@@H](O[C@@H]4O[C@H](CO[C@@H]5O[C@H](C)[C@H](O)[C@H](O)[C@H]5O)[C@@H](O)[C@H](O)[C@H]4O)[C@H](O)[C@H]3O)[C@@H](O)[C@H](O)[C@H]2O)[C@H]1O[C@@H]1O[C@@H](C)[C@H](O)[C@@H](O)[C@H]1O
inactive: Activity (HeLa) | Activity (MCF7 [1]) | inhibition (MCF7 [2]) | Activity (A549) | Activity (Bel-7402)

CCCCCC[C@@H](CCCCCCCCCC(=O)O)O[C@@H]1O[C@H](C)[C@H](O)[C@H](O)[C@H]1O[C@@H]1O[C@H](CO)[C@@H](O)[C@H](O[C@@H]2O[C@H](CO)[C@@H](O[C@@H]3O[C@H](CO[C@@H]4O[C@H](C)[C@H](O)[C@H](O)[C@H]4O)[C@@H](O)[C@H](O)[C@H]3O)[C@H](O)[C@H]2O)[C@H]1O[C@@H]1O[C@@H](C)[C@H](O)[C@@H](O)[C@H]1O
inactive: Activity (HeLa) | Activity (MCF7 [1]) | inhibition (MCF7 [2]) | Activity (A549) | Activity (Bel-7402)

CCCCCC[C@@H](CCCCCCCCCC(=O)O)O[C@@H]1O[C@H](C)[C@H](O)[C@H](O)[C@H]1O[C@@H]1O[C@H](CO)[C@@H](O)[C@H](O[C@@H]2O[C@H](CO[C@@H]3O[C@H](CO)[C@@H](O[C@@H]4O[C@H](CO)[C@@H](O)[C@H](O)[C@H]4O)[C@H](O)[C@H]3O)[C@@H](O)[C@H](O)[C@H]2O)[C@H]1O[C@@H]1O[C@@H](C)[C@H](O)[C@@H](O)[C@H]1O
inactive: Activity (HeLa) | Activity (MCF7 [1]) | inhibition (MCF7 [2]) | Activity (A549) | Activity (Bel-7402)

CCCCC[C@@H](CCCCCCCCCC(=O)O)O[C@@H]1O[C@H](C)[C@H](O)[C@H](O)[C@H]1O[C@@H]1O[C@H](CO)[C@@H](O)[C@H](O[C@@H]2O[C@H](CO)[C@@H](O[C@@H]3O[C@H](CO[C@@H]4O[C@H](C)[C@H](O)[C@H](O)[C@H]4O)[C@@H](O)[C@H](O)[C@H]3O)[C@H](O)[C@H]2O)[C@H]1O[C@@H]1O[C@@H](C)[C@H](O)[C@@H](O)[C@H]1O
inactive: Activity (HeLa) | Activity (MCF7 [1]) | inhibition (MCF7 [2]) | Activity (A549) | Activity (Bel-7402)

CCCCCC[C@@H](CCCCCCCCCC(=O)O)O[C@@H]1O[C@H](C)[C@H](O)[C@H](O)[C@H]1O[C@@H]1O[C@H](CO)[C@@H](O)[C@H](O[C@@H]2O[C@H](CO[C@@H]3O[C@H](CO)[C@@H](O[C@@H]4O[C@H](CO[C@@H]5O[C@H](C)[C@H](O)[C@H](O)[C@H]5O)[C@@H](O)[C@H](O)[C@H]4O)[C@H](O)[C@H]3O)[C@@H](O)[C@H](O)[C@H]2O)[C@H]1O[C@@H]1O[C@@H](C)[C@H](O)[C@@H](O)[C@H]1O
inactive: Activity (HeLa) | Activity (MCF7 [1]) | inhibition (MCF7 [2]) | Activity (A549) | Activity (Bel-7402)

CCCCC[C@@H](CCCCCCCCCC(=O)O)O[C@@H]1O[C@H](C)[C@H](O)[C@H](O)[C@H]1O[C@@H]1O[C@H](CO)[C@@H](O)[C@H](O[C@@H]2O[C@H](CO[C@@H]3O[C@H](CO)[C@@H](O[C@@H]4O[C@H](CO)[C@@H](O)[C@H](O)[C@H]4O)[C@H](O)[C@H]3O)[C@@H](O)[C@H](O)[C@H]2O)[C@H]1O[C@@H]1O[C@@H](C)[C@H](O)[C@@H](O)[C@H]1O
inactive: Activity (HeLa) | Activity (MCF7 [1]) | inhibition (MCF7 [2]) | Activity (A549) | Activity (Bel-7402)
